Consider 9 molecules from PubChem BioAssay (NCI).

Some test systems named below: K-562 leukemia; 786-0 renal; OVCAR-4 ovarian; MCF7 breast; MDA-MB-435; A498 renal; UACC-62 melanoma; NCI/ADR-RES ovarian; U251 CNS; NCI-H23 lung.
Assay in all cases: NCI anticancer screen, dose series, 48 h

Where “and” joins values, the source holds several entries; their conditions need not be identical. Identical values can stand only once.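 Cultured in 96-well plates, cells were exposed to test compound for 48 hours across five concentrations. GI50 marks 50% less growth. TGI: concentration producing complete growth inhibition.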

With `CN(C)CCN1C(=O)c2cccc3cc(N)cc(c23)C1=O`, the TGI in the experiment on K-562 leukemia was > 100 µM and 37.4 µM; with 786-0 renal, > 81.6 µM and 23 µM; in the experiment with OVCAR-4 ovarian it was 33.7 µM and 18.3 µM; with MCF7 breast, 22.2 µM and 18.5 µM; with MDA-MB-435 it was 15.7 µM and 9.98 µM; in the experiment on A498 renal it was 13.8 µM and 8.93 µM. In addition, the TGI in the experiment with UACC-62 melanoma is 11.7 µM and 8.02 µM; in the experiment on NCI/ADR-RES ovarian it was > 67.2 µM and 12.2 µM; in the experiment on U251 CNS, > 46.7 µM and 20.6 µM; in the experiment with NCI-H23 lung it was 22.7 µM and 14.1 µM. For the same molecule, the GI50 is 4.16 µM in the experiment with 786-0 renal; 1380 nM in the experiment on MCF7 breast; 3860 nM in the experiment on MDA-MB-435; 2.89 µM in the experiment with UACC-62 melanoma; 2.85 µM with U251 CNS; 3.43 µM in the experiment with NCI-H23 lung.

Regarding `CCOc1cc(/C=C/C(=O)CC(=O)/C=C/c2ccc(OC(=O)CNc3nc4ccc(OC)cc4s3)c(OCC)c2)ccc1OC(=O)CNc1nc2ccc(OC)cc2s1`, the GI50 in the experiment on K-562 leukemia was 2.71 µM; with 786-0 renal, 17 µM; with OVCAR-4 ovarian, 13.6 µM; with MCF7 breast, 2540 nM; in the experiment on MDA-MB-435, 2460 nM; with A498 renal it was 13.4 µM. Besides, the GI50 is 7.6 µM with UACC-62 melanoma, 20 µM in the experiment on NCI/ADR-RES ovarian, 3.93 µM in the experiment on U251 CNS and 7.78 µM with NCI-H23 lung. The TGI in the experiment with K-562 leukemia is above 100 µM; with 786-0 renal, 85.1 µM; with OVCAR-4 ovarian, 68.5 µM; in the experiment with MCF7 breast it was 10.8 µM; in the experiment with MDA-MB-435, 8.3 µM; in the experiment with A498 renal, 26.2 µM. Also, the TGI in the experiment with UACC-62 melanoma was 20.3 µM; with NCI/ADR-RES ovarian it was above 100 µM; with U251 CNS, 14.5 µM; in the experiment on NCI-H23 lung, 75.4 µM.

As for `CC(C)Cn1cnc2c(N)nc3ccccc3c21`, the GI50 was above 54.7 µM in the experiment on K-562 leukemia; 25.2 µM with 786-0 renal; 67.2 µM in the experiment with OVCAR-4 ovarian; 29400 nM with MCF7 breast; 48900 nM in the experiment on MDA-MB-435; 47.8 µM with A498 renal. Further, the GI50 with UACC-62 melanoma was 38.4 µM; in the experiment with NCI/ADR-RES ovarian, 49 µM; in the experiment with U251 CNS, 47.5 µM; in the experiment with NCI-H23 lung, 37.1 µM. The TGI in the experiment with K-562 leukemia is above 100 µM; in the experiment with 786-0 renal, above 87.3 µM; with OVCAR-4 ovarian, above 100 µM; with MCF7 breast, above 100 µM; with MDA-MB-435, above 100 µM; with A498 renal, above 100 µM. Besides, the TGI in the experiment with UACC-62 melanoma, in the experiment with NCI/ADR-RES ovarian, in the experiment on U251 CNS and in the experiment with NCI-H23 lung was above 100 µM in each case.

On to `CC(C)OC(=O)Nc1c([N+](=O)[O-])cc(C(F)(F)F)cc1[N+](=O)[O-]`, for which the TGI is above 46.4 µM in the experiment on K-562 leukemia; above 100 µM in the experiment with 786-0 renal; above 100 µM in the experiment with OVCAR-4 ovarian; above 100 µM with MCF7 breast; above 100 µM in the experiment on MDA-MB-435; above 100 µM with A498 renal. Moreover, the TGI in the experiment on UACC-62 melanoma, with NCI/ADR-RES ovarian, in the experiment on U251 CNS and in the experiment with NCI-H23 lung was above 100 µM each time.

Take `C/C(=C1\C(=O)Nc2ccccc21)c1cccc(/C(C)=C2/C(=O)Nc3ccccc32)n1`: the GI50 is 4.35 µM with K-562 leukemia; 17.3 µM with 786-0 renal; 43 µM with OVCAR-4 ovarian; 3740 nM in the experiment with MCF7 breast; 2570 nM in the experiment with MDA-MB-435; 4.44 µM with A498 renal. Moreover, the GI50 in the experiment on UACC-62 melanoma is 4.56 µM; in the experiment on NCI/ADR-RES ovarian, 4.93 µM; in the experiment on U251 CNS, 7.6 µM; in the experiment on NCI-H23 lung it was 16.8 µM. In addition, the TGI with K-562 leukemia is above 100 µM; in the experiment with 786-0 renal, 89.6 µM; in the experiment on OVCAR-4 ovarian, above 100 µM; in the experiment on MCF7 breast it was above 100 µM; in the experiment with MDA-MB-435 it was 13.4 µM; in the experiment with A498 renal, 34.8 µM. The TGI with UACC-62 melanoma was 23.2 µM; in the experiment on NCI/ADR-RES ovarian, 44.8 µM; in the experiment with U251 CNS it was above 100 µM; in the experiment with NCI-H23 lung, 60.5 µM.

Turning to `O=C(Nc1ccc(Nc2ccc3c(c2)C(=O)c2ccccc2C3=O)c2c1C(=O)c1ccccc1C2=O)c1ccccc1`, the TGI with K-562 leukemia, in the experiment with 786-0 renal, in the experiment on OVCAR-4 ovarian, in the experiment with MCF7 breast, in the experiment on MDA-MB-435 and in the experiment on A498 renal was above 100 µM throughout. Besides, the TGI in the experiment on UACC-62 melanoma was above 100 µM; in the experiment with NCI/ADR-RES ovarian, above 100 µM; in the experiment with U251 CNS, 98.7 µM; with NCI-H23 lung it was above 100 µM.

For the molecule `COc1cc(OC)c(OC)cc1/C=C/c1ccccn1`, the TGI in the experiment with K-562 leukemia, in the experiment on 786-0 renal, in the experiment on OVCAR-4 ovarian, in the experiment on MCF7 breast, in the experiment with MDA-MB-435 and in the experiment with A498 renal was above 10 µM in each case. Further, the TGI in the experiment on UACC-62 melanoma, in the experiment on NCI/ADR-RES ovarian, with U251 CNS and in the experiment with NCI-H23 lung was above 10 µM throughout.

`C=CCn1c(SCC(=O)Nc2ccc(C(=O)/C=C/c3cc(OC)c(OC)c(OC)c3)cc2)nnc1-c1cc(OC)c(OC)c(OC)c1`: the GI50 with K-562 leukemia was 3.44 µM; with 786-0 renal, 1.85 µM; in the experiment on OVCAR-4 ovarian, 5.67 µM; with MCF7 breast it was 1830 nM; in the experiment on MDA-MB-435, 2720 nM; with A498 renal, 7.4 µM. In addition, the GI50 in the experiment with UACC-62 melanoma is 3.31 µM; in the experiment on NCI/ADR-RES ovarian it was 15.3 µM; in the experiment with U251 CNS, 2.15 µM; in the experiment with NCI-H23 lung, 3.41 µM. Also, the TGI is above 100 µM in the experiment with K-562 leukemia; 4.01 µM in the experiment with 786-0 renal; 38.6 µM in the experiment on OVCAR-4 ovarian; 10.5 µM in the experiment on MCF7 breast; 10.7 µM in the experiment with MDA-MB-435; 20.3 µM with A498 renal. Moreover, the TGI is 17.5 µM in the experiment with UACC-62 melanoma, above 100 µM in the experiment with NCI/ADR-RES ovarian, 5.38 µM in the experiment on U251 CNS and 26 µM with NCI-H23 lung.

As for `O=C(O)C1CCCN1` (stereo unspecified), the TGI with K-562 leukemia, in the experiment with 786-0 renal, in the experiment with OVCAR-4 ovarian, with MCF7 breast, with MDA-MB-435 and in the experiment on A498 renal was above 100 µM in each case. Besides, the TGI in the experiment with UACC-62 melanoma, with NCI/ADR-RES ovarian, in the experiment with U251 CNS and in the experiment on NCI-H23 lung was above 100 µM in each case.
